Positions count from the first letter of the chain named.

Assay in all cases: biochemical
Assay [1] has as its target T1, Amaranthus mutant PPO (AMARE) (Amaranthus tuberculatus, UniProt Q0NZW9, F420L/R128L).
T1 sequence (Q0NZW9 1-534 R128L/F420L): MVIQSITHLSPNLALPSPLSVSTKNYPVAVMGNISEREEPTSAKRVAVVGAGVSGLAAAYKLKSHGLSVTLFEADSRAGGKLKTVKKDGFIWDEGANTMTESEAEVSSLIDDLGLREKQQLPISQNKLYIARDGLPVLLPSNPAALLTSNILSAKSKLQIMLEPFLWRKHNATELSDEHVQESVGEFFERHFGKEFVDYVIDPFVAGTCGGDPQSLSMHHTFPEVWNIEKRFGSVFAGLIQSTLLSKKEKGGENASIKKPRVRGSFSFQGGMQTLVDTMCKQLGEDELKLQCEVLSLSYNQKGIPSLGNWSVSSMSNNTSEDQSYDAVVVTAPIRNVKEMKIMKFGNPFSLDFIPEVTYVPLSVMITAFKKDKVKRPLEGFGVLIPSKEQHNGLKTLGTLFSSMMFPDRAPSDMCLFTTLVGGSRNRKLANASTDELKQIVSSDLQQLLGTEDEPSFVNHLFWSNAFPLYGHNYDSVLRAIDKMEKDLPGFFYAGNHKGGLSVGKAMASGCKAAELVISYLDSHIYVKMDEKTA

Assay [2] has as its target T2, Amaranthus mutant PPO (AMARE) (Amaranthus tuberculatus, UniProt Q0NZW7).
T2 sequence (Q0NZW7 1-533): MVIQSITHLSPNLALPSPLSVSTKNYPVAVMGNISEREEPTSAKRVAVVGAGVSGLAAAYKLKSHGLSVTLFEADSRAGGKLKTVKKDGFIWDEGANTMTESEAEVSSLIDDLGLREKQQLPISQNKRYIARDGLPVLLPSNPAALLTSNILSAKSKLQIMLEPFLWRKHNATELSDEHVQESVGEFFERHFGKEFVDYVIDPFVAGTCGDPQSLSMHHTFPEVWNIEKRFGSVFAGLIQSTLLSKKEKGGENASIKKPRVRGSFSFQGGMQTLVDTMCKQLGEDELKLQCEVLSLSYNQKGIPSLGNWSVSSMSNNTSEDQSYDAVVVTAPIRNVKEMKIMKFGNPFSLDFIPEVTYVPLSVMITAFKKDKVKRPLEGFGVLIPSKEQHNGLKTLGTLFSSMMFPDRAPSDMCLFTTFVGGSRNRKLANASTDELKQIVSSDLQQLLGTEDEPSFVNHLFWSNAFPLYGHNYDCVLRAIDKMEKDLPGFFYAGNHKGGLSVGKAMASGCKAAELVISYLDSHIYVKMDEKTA

The target in assay [3] is T3, Amaranthus mutant PPO (AMARE) (Amaranthus tuberculatus, UniProt Q0NZW9, F420V/R128A).
T3 sequence (Q0NZW9 1-534 R128A/F420V): T1 sequence (Q0NZW9 1-534 R128L/F420L) with L128A, L420V

Assay [4] deals with T4, Amaranthus mutant PPO (AMARE) (Amaranthus tuberculatus, UniProt Q0NZW9, R128L).
T4 sequence (Q0NZW9 1-534 R128L): T1 sequence (Q0NZW9 1-534 R128L/F420L) with L420F

Assay [5] deals with T5, Amaranthus mutant PPO (AMARE) (Amaranthus tuberculatus, UniProt Q0NZW9, F420M).
T5 sequence (Q0NZW9 1-534 F420M): T1 sequence (Q0NZW9 1-534 R128L/F420L) with L128R, L420M

By IC50 is commonly meant the concentration needed to halve the response being measured. Higher therefore signals a need for much substance. On to `C#CCN1C(=O)C(F)(F)Oc2cc(F)c(-n3c(=O)n(C)c(=S)n(C)c3=O)cc21` [BAS 850H], for which the IC50 in assay [1] was determined as 1710 nM; in assay [2] it was 2.12 nM; in assay [3] it was 25 nM.

For the compound `CC(C)N(C)S(=O)(=O)NC(=O)c1cc(-n2c(=O)cc(C(F)(F)F)n(C)c2=O)c(F)cc1Cl` [saflufenacil], the IC50 in assay [1] was over 10000 nM; in assay [4] it was 222 nM; in assay [2] it was 1600 nM; in assay [5], 677 nM; in assay [3], over 10000 nM.

(Values after US10392630B2, “Plants having increased tolerance to herbicides” (BASF AGRO B.V., priority 2013, dated 2019).)
